Source: US20190000128A1, “INFANT FORMULA COMPRISING HUMAN MILK PEPTIDES” (THE A2 MILK COMPANY LIMITED, priority 2015, published 2019)

Test system: neuronal stem cell (NSC) cultures / foetal stem cells
Test: Neuronal stem cell neurogenesis, differentiation and proliferation by immunocytochemistry
Format: cell-based
Conditions: foetal stem cells treated with 1 μM; FIG. 3B
Experimental: Previously isolated and frozen neuronal stem cell cultures were properly thawed, maintained and cultured. Cell suspensions were grown in a defined medium (DF12) composed of DMEM/F12 (1:1), 2 mM L-glutamine, 1 mM sodium pyruvate, antibiotics/antimycotics (Invitrogen, Grand Island, N.Y.), 0.6% glucose, 25 μg/ml insulin, 20 nM progesterone, 60 μM putrescine, 30 nM sodium selenite (all from Sigma, St. Louis, Mo.), 100 μg/ml human transferrin (Roche, Indianapolis, Ind.), 20 ng/ml human recombinant […] growth factor (EGF; Roche or Invitrogen, Chicago, Ill.) and basic fibroblast growth factor (bFGF; Upstate Biotechnology, Lake Placid, N.Y.). The cells grew as free-floating aggregates (neurospheres) and were passaged by mechanical dissociation every 3-4 d. […]
To identify proliferating cells, 100 μM BrdU, an analog of thymidine, was added 24 h before cell fixation. […] A primary monoclonal antibody against BrdU (1:20; Dakopatts) was added for 1 h at room temperature and detected using AlexaFluor 488-labelled goat anti-mouse IgG (H+L). […] Apoptotic cells were visualised with Hoechst 33342 (LifeTechnologies, Md.) as fragmented pycnotic blue-stained nuclei and counted under the fluorescence microscope (López-Toledano M.A. and Shelanski M.L., 2004 Neurogenic effect of beta-amyloid peptide in the development of neural stem cells. J Neurosci. 24(23):5439-44). […]

CN1CC[C@]23c4c5ccc(O)c4O[C@H]2[C@@H](O)C=C[C@H]3[C@H]1C5 [morphine, Morphine]
neuronal proliferation (image of magnified foetal stem cells): extensive neuronal proliferation
